According to a melting point compilation (Tetko et al.; mined from patent text by program, amines drawn as free bases though some values may be those of a salt):

For `CCN(CC)c1nc(Cc2ccc(OC)c(OC)c2)nc2sc(C#N)c(C)c12`, the melting point was 107 to 109 °C.
`CS(=O)c1ccc(C(=O)Cc2ccccc2)cc1` (stereo not given) gave a melting point of 104 °C.
In the case of `CC(=O)N1CC(=O)NC(=O)N1Cc1ccc(Cl)cc1`, the melting point is reported as 97 °C.
`O=[N+]([O-])c1cccnc1NCCc1c[nH]cn1` showed a melting point of 178 to 180 °C.
In the case of `CCNC(=O)C1OC(n2cnc3c(NCc4ccc(O)cc4)ncnc32)C(O)C1O` (stereo not given), the melting point is reported as 180 °C.
In the case of `CCOC(=O)C=Cc1ccc(NC(=O)Oc2ccccc2)cc1`, the melting point is reported as 136 to 138 °C.
`CC1Cc2c(N)c(Cl)cc(C(=O)NCCC34CCCN3CCC4)c2O1` (stereo not given) showed a melting point of 127 to 129 °C.
For `CCCCCNc1ccc(OC2CCN(C(C)=O)CC2)cc1`, the melting point was 69 to 71 °C.
Compound `CCOC(=O)OC1=C(c2c(C)cc(C)cc2C)C(=O)N(C)C12CCN(OC)CC2` has a melting point of 134 to 136 °C.
In the case of `O=Cc1cc2cc(OCc3ccccc3)c(F)cc2nc1Cl`, the melting point is reported as 228 °C.
Compound `CC1CC(NCC(F)(F)F)=NN1c1ccc(Cl)cc1` (stereo not given) has a melting point of 63 to 64 °C.
For `CN1CC[C@@H](c2c(O)cc(O)c3c(=O)cc(-c4ccc([N+](=O)[O-])cc4)oc23)[C@@H]1CO`, the melting point was 275 to 277 °C.
Compound `O=C(O)CCCCN(C(=O)c1ccc(Cl)cc1)c1ccccc1-c1ccccc1` has a melting point of 170 to 173 °C.
With `CC(=O)NC(NNc1ccccc1)C(=O)NCc1ccccc1` (stereo not given) the melting point was 132 to 134 °C.
Work on `N#Cc1c[nH]c(-c2ccc(F)cc2)c1` yielded a melting point of 158 to 159 °C.
With `CC1CC2C3CCC4=CC(=O)C=CC4(C)C3=CCC2(C)C1C(=O)COS(=O)(=O)c1ccc(Br)cc1` (stereo not given) the melting point was 124 to 129 °C.
Compound `Cc1ccc(S(=O)(=O)N(C)c2cc(C(C)(C)C)c(O)c(C(C)(C)C)c2)cc1` has a melting point of 130 to 142 °C.
Work on `CC(C)c1ccc2c(c1)C(O)(c1ccccn1)CC(C)(C)CO2` (stereo not given) yielded a melting point of 72 °C.
`COC(=O)c1cc(N)cc(C=NO)c1` showed a melting point of 160 to 162 °C.
With `CC(=O)Nc1ccc(OCCCOc2ccc(Cl)c(Cl)c2)cc1` the melting point was 135 to 137 °C.
Work on `Cc1cn(-c2cccc(C(F)(F)F)c2)nc(-c2ccnn2-c2ccccc2)c1=O` yielded a melting point of 147 to 150 °C.
`N#Cc1ccc2c(c1)S(=O)c1ccccc1C=C2` (stereo not given) gave a melting point of 220 to 222 °C.
`CC(CCl)(CCl)c1cc(Cl)nnc1Cl` showed a melting point of 92 to 94 °C.
`O=c1cc(-c2ccc(OCCCCl)cc2)cn[nH]1` gave a melting point of 197 to 199 °C.
`Cc1onc(-c2ccccc2)c1C(=O)NCCCN1CCN(c2ccc(F)cc2OCC(F)(F)F)CC1` gave a melting point of 112 to 135 °C.
`CN1CCc2c(CO)csc2C(c2ccccc2)C1` (stereo not given) gave a melting point of 115 °C.
Work on `CCCCCCCCCCCCCCCCCCOC(=O)c1cccc(NC(=O)NS(=O)(=O)c2ccc(C)cc2)c1` yielded a melting point of 96 °C.
`O=C(Cc1c(-c2cccnc2)c2cc(CN3CCN(c4ccccc4)CC3)c(Cl)cc2oc1=O)Nc1ccc(F)cc1C(F)(F)F` gave a melting point of 202 to 205 °C.
`Cn1ccnc1S(=O)(=O)C(C)(Cc1ccc(-c2ccccc2)cc1)C(=O)NO` (stereo not given) showed a melting point of 112 °C.
`CCON1CCC2(CC1)NC(=O)C(c1c(C)cc(C)cc1C)=C2OC(=O)C(C)(C)C` gave a melting point of 230 to 231 °C.
`Cn1cc(C2=C(c3ccncc3)C(=O)NC2=O)c2ccccc21` gave a melting point of 332 to 334 °C.
Work on `CC(=O)Nc1ccc(-c2ccc3nc(-c4cccnc4N)n(-c4ccc(CN)cc4)c3n2)cc1` yielded a melting point of 245 to 248 °C.
Compound `CCNc1ccccc1Nc1c(C(=O)O)cnc2c1cnn2CC` has a melting point of 224 to 226 °C.
With `O=C1Nc2cccc(Cl)c2C(=O)N2CC=C[C@@H]12` the melting point was 250 °C.
Compound `Cc1ccc2c(=O)c3cc(C(F)(F)F)ccc3sc2c1` has a melting point of 174 to 178 °C.
For `CC(C)[C@H](NC(=O)OCc1ccccc1)C(=O)NCCCNC(=O)[C@@H](NC(=O)OCc1ccccc1)C(C)C`, the melting point was 211 to 212 °C.
With `COc1ccc(OCCC2CCN(c3cc(Cl)nnc3Cl)CC2)cc1` the melting point was 119 to 120 °C.
Compound `O=[N+]([O-])c1ccc(OCCc2c[nH]cn2)cc1` has a melting point of 197 to 200 °C.
In the case of `c1cc(-c2cnc(-c3ccc(-c4cnco4)o3)o2)nc(-c2cnc(-c3ccc(-c4cnco4)o3)o2)c1`, the melting point is reported as greater than 250 °C.
For `COc1cc(C2C3=C(COC3=O)Nc3ccc4cc(C)[nH]c4c32)cc(OC)c1OC` (stereo not given), the melting point was 280 to 281 °C.
In the case of `CCc1c(Cc2[nH]c(Cc3[nH]c(C(=O)OCc4ccccc4)c(C)c3CC)c(CC)c2CC)[nH]c(C(=O)OCc2ccccc2)c1C`, the melting point is reported as 211 °C.
Work on `O=c1ccoc(C(O)c2ccc3ccccc3c2)c1OCc1ccccc1` (stereo not given) yielded a melting point of 159 to 160 °C.
With `Nc1ccc(N2C(=O)c3ccccc3C2=O)cc1S(F)(F)(F)(F)F` the melting point was 176 to 178 °C.
`O=C(O)CNC(=O)c1sc(Nc2ccccc2)c2c1CCc1cnoc1-2` gave a melting point of 193 to 194 °C.
`COc1nc(N)c(Cl)cc1C(=O)CCC1CCN(CC(C)(C)O)CC1` showed a melting point of 108 °C.
With `CC(C)=CC(=O)Nc1ccc(F)cc1CCN1CCN(c2nsc3ccccc23)CC1` the melting point was 175 °C.
In the case of `CCCCc1nc(C(=O)CC)c(C#N)n1C(c1ccccc1)(c1ccccc1)c1ccccc1`, the melting point is reported as 140 to 143 °C.
Work on `Cn1ccc2cc(NC(=O)Oc3ccccc3)ccc21` yielded a melting point of 103 to 107 °C.
In the case of `CCCCCCCOC(=O)Oc1ccc(-c2ccc(C#N)cc2)cc1`, the melting point is reported as 50.2 to 50.5 °C.
`Cc1csc(C2=CCN(CCCC(O)c3ccc(F)cc3)CC2)n1` (stereo not given) showed a melting point of 89 to 90.5 °C.
In the case of `CC1Nc2ccc(-c3ccc(C#N)n3C)cc2C(C)(C)O1` (stereo not given), the melting point is reported as 195 to 196 °C.
Work on `O=C(NCCO)c1ccc(C(=O)N2CCN(CCO)CC2)nc1` yielded a melting point of 126 to 128 °C.
`COc1ccc(N2CCN(c3cc4c(cc3-c3cccnc3)OC(C)(C)C4)CC2)cc1` gave a melting point of 177 to 180 °C.
In the case of `CC(C)=CCN1CCc2c(sc(N)c2C(=O)c2ccc(I)cc2)C1`, the melting point is reported as 148 to 150 °C.
`O=C(O)Cc1ccc2c(c1)C(=O)c1ccccc1CO2` showed a melting point of 126 to 128 °C.
`Cc1cccc(N2CCN(CCCCc3ccc(C4CCC(=O)N4)cc3)CC2)c1C` (stereo not given) gave a melting point of 112 to 114 °C.
`Cc1cc(Cn2c(=S)sc3ccccc32)cc(C)c1O` showed a melting point of 164 to 165 °C.
With `CC(C)CSc1nc2c(cc1C#N)C(=O)CC(C)(C)C2` the melting point was 75 to 76 °C.
`O=C(NC1N=C(c2ccccc2F)c2ccccc2-n2cnnc21)OCc1ccccc1` (stereo not given) showed a melting point of 123 °C.
In the case of `CCOC(=O)C(=O)Nc1cc(C#N)c(C(C)=O)cc1[N+](=O)[O-]`, the melting point is reported as 142 to 144 °C.
Compound `CC(=O)c1cc2nc(SCc3nccc4c3OCO4)[nH]c2cc1C` has a melting point of 141 to 143 °C.
`COc1ccc(N2CCN(Cc3ccc(NC(=O)/C=C/c4cccc(-c5ccc(C)cc5)c4)cc3)CC2)cc1` showed a melting point of 207 to 208 °C.
Compound `COc1ccc(SCCCCN2C(=O)c3ccccc3C2=O)cc1` has a melting point of 61 to 62 °C.
Work on `Cc1nc(N)nc(N)c1-c1ccc([N+](=O)[O-])c(Cl)c1Cl` yielded a melting point of 265 °C.
`CSc1ccc(F)cc1C(=O)Cn1cccc1` showed a melting point of 133 to 134 °C.
In the case of `Cc1c(F)c(N2CCNCC2)c(Cl)c2c1c(=O)c(C(=O)O)cn2C1CC1`, the melting point is reported as 234 to 235 °C.
`O=Cc1ccc(Cl)c(OCCCC(=O)N(CCO)CCCCC2CCCC2)c1[N+](=O)[O-]` showed a melting point of 107 to 108 °C.
`COc1ccc(-c2c(C(C)=O)c(C)nc3cc(OC)c(OC)cc23)cc1OC` showed a melting point of 210 to 211 °C.
For `CCCCc1nc(Cl)c(CO)n1Cc1ccc(Oc2ccccc2C(=O)O)cc1`, the melting point was 178 to 180 °C.
Compound `Cc1ccc(S(=O)(=O)NC(CCCCNC(=O)OCc2ccccc2)C(=O)O)cc1` (stereo not given) has a melting point of 120 to 121 °C.
